Experimental data: US5935945A, “Methods of treating or preventing cardiac arrhythmia” (Merck & Co., Inc., priority 1997, dated 1999)

Key:
hKv1.5 = target: T1, hKv1.5 (Homo sapiens, UniProt P22460); assay: Voltage-clamp measurement of hKv1.5 current expressed in Chinese hamster ovary (CHO) cells; type: cell-based; settings: rested state block, first pulse; 150 ms pulses to +40 mV from -80 mV; room temperature (22-24° C); read-out: Rested State IC50, CHO Cells Expressing hKv1.5
T1 construct: expressed in transfected cells
T1 sequence (P22460 whole entry): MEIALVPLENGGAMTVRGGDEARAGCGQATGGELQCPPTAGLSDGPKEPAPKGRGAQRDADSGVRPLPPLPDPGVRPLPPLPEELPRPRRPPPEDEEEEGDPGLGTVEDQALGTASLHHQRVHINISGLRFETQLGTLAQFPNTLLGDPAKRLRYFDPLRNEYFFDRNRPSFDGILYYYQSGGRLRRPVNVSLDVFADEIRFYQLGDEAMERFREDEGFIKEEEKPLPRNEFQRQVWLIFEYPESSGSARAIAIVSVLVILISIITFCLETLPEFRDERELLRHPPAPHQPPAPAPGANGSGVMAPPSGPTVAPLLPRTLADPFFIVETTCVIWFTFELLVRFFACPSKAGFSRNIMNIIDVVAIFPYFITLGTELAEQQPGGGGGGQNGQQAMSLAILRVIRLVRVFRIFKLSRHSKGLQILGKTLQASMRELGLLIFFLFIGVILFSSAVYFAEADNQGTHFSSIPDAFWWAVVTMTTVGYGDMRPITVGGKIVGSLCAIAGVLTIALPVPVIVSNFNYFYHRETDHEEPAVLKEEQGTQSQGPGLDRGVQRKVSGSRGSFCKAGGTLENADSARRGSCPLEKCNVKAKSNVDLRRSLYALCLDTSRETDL
Procedure: Expression of Kv1.5 in CHO Cells
CHOKI cells were plated at 2.7×10^4 cells/60 mm dish and incubated at 37° C., in a 5% CO2 environment for three days. Cells were then washed twice and covered with 3 ml of OptiMEM medium (Gibco). Plasmid/DOTAP solution (consisting of […] of Kv1.5 in pcDNAI/Neo and […] DOTAP transfection reagent (Boehringer Mannheim) in 1 ml of OptiMEM) was added dropwise to each plate while swirling. Plates were incubated overnight and the media then changed to 5 mls of F12 (Gibco) supplemented with 10% FBS (Sigma), 1,000 U/ml penicillin […] streptomycin (Gibco), and 2 mM glutamine (Gibco). After two more days, the cells were trypsinized and replated on 100 mm dishes in supplemented F12 media including 1 mg/ml G418 (Gibco). The medium was changed daily until nontransfected cells were killed. Cell lines were grown from individual clones and tested for expression of Kv1.5 using both the ^86 RB efflux assay and voltage clamp protocols. […] These cells were maintained in culture and on each experimental day were freshly isolated by mild trypsinization.
The patch-clamp technique was used to record ionic currents in the whole-cell configuration. Patch pipettes were obtained using a two stage puller from square bore (1.0 mm o.d.) borosillicate capillary tubing. Pipettes were filled with the following solution (in mM/L): 110 K-Gluconate or K-Aspartate, 20 KCl, 5 MgATP, 5 EGTA, 5-10 HEPES, pH 7.2. […] Following seal formation, the membrane was ruptured by gentle suction to establish the whole-cell configuration, and negative pressure was maintained on the pipette using a 1 ml gas-tight syringe attached via air tight tubing to the suction port of the microelectrode holder.
Kv1.5 currents were elicited by 150 ms depolarizing test pulses to +40 mV from a holding potential of -80 mV. The effects of test agents were assessed at steady-state. Data was analyzed as % block from control current amplitude. […] All experiments were performed at room temperature (22-24° C.). […]

[1] = target: T2, IKs (slowly activating delayed rectifier K^+ current) (Cavia porcellus, UniProt O70344); assay: Voltage-clamp measurement of IKs in guinea pig ventricular myocytes; type: cell-based; settings: read-out: % Block (Guinea Pig Ventricle) IKs
T2 construct: Guinea pig ventricular myocytes were isolated; from tissue; host or cells: isolated guinea pig ventricular myocytes
T2 sequence (O70344 whole entry): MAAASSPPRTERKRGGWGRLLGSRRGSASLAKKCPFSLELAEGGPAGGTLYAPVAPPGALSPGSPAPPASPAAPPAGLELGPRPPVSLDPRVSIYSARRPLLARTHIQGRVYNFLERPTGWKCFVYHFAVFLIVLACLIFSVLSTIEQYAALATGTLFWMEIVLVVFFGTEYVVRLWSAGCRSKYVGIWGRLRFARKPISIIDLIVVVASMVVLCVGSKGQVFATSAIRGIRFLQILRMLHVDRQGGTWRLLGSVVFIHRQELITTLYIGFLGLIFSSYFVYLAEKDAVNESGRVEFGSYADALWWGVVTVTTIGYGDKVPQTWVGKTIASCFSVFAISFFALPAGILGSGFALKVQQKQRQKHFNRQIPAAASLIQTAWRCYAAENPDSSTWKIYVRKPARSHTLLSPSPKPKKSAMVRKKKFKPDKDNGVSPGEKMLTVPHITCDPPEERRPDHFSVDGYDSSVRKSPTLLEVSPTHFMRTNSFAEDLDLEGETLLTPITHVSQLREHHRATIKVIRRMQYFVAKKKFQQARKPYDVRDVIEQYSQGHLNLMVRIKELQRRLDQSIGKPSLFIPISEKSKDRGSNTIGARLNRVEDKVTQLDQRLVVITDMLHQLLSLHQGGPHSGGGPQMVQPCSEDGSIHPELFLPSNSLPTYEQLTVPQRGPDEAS
T2 sequence (Q60409 whole entry partner): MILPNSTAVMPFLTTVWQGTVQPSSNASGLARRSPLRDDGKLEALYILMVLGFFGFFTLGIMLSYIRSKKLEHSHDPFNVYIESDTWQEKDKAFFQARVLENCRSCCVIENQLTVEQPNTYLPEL
Procedure: Guinea pig ventricular myocytes were isolated using a modification of the procedure described by Mitra et al., Am. J. Physiol. 249:H1056-60 (1985). Excised hearts were perfused through the aorta (retrograde fashion) at a rate of 10 ml/min with oxygenated, warmed (37° C.) solutions described below. The heart was initially perfused for 7 minutes with a Tyrode's solution containing, (in mM): 132 NaCl, 4 KCl, 1.2 MgCl2, 10 HEPES, 5 glucose, pH=7.2. The heart was then perfused with the same nominally Ca^2+ -free solution containing 150 units/ml Type II collagenase (Worthington) and 0.5 units/ml Type XIV protease (Sigma) for 8 minutes. This perfusate was followed by a Tyrode's solution containing 0.2 mM CaCl2 (without enzymes) for 5 minutes. The digested ventricles were cut into small pieces and gently shaken until cells were visibly dispersed. The cells were stored at room temperature until use, within 8 hours after isolation.
The suction microelectrode technique described by Giles, W. R. and Shibata, E. F., "Voltage clamp of bull-frog cardiac pacemaker cells: a quantitative analysis of potassium currents", J. Physiol. 368:265-292 (1985) was used to voltage clamp the cells. Microelectrodes were made by using a two stage puller from square bore (1.0 mm o.d.) borosilicate capillary tubing. Pipettes were filled with 0.5 M K gluconate, 25 mM KCl and 5 mM K2 ATP. The electrodes had resistances of 3 to 7 M.OMEGA. when filled with this solution. After establishing whole-cell recording mode, negative pressure was maintained on the pipette using a 1 ml gas-tight syringe attached via air tight tubing to the suction port of the microelectrode holder. This minimized dialysis of the cell with the pipette solution.
To record K^+ currents, the cells were bathed in a Ca^2+ -free Tyrode's solution containing […]. […] To record Ca^2+ currents, the cells were bathed in Tyrode's solution containing 1.8 mM Ca^2+ without nisoldipine. The cell chamber was superfused with solutions at a rate of 1-2 ml/minute, while maintaining the temperature at 35±1° C. A List EPC-7 clamp amplifier was used to voltage clamp the isolated cells. […] (Sanguinetti M. C. and Jurkiewicz, N. K., "Two components of cardiac delayed rectifier K^+ current: Differential sensitivity to block by Class III antiarrhythmic agents", J. Gen Physiol 1990; 96:194-214.) Data was analyzed as % block from control membrane currents.
Nisoldipine was prepared as a 4 mM stock solution in polyethylene glycol 200. […] At the final concentrations used neither polyethylene glycol 200 nor dimethyl sulfoxide had any effect on any of the measured membrane currents.
Selectivity for block of cardiac K^+ channels, IK1, IKr, and IKs was determined as previously described in guinea pig ventricular myocytes (U.S. Pat. No. 5,428,031).

Compound	IC50 (hKv1.5)	inhibition at 3 µM [1]	inhibition at 10 µM ([1]; @ 10 μM)
Cc1cc(C)c(CP(=O)(c2ccccc2)c2ccccc2)c(-c2ccc(F)c(C)c2)c1 [Compound C, 2-(Diphenylphosphinylmethyl)-4'-fluoro-3,5,3'-trimethyl-biphenyl]	278 nM	12.2%	–
COc1ccc(-n2nc(Sc3ccc(C)cc3)c(C)c(C#N)c2=O)cc1 [Compound B]	120 nM	13.6%	–
COc1ccc(-n2nc(Sc3ccc(Cl)cc3)c(C)c(C#N)c2=O)cc1 [Compound A, 6-(4-Chlorophenylthio)-2-(4-methoxyphenyl)-5-methyl-3-oxo-2,3-dihydropyridazine-4-carbonitrile]	230 nM	–	4%
